The results in this text go back to patent publication EP3046573B1, “AMYLIN ANALOGUES” (Zealand Pharma A/S, priority 2013, dated 2015).

SMILES strings stand for the structures. Numbered stars: 1 amine (or outer) side, 2 acyl side, 3 side chain; on linkers, the order of the positions; unused ones are H or OH. Bridge positions count the residues as written; N and C are the ends. Square brackets hold non-standard residues; d marks the D form. Peptide text beside a SMILES is read from it. * marks the point of attachment. C20 diacid = O=C(O)CCCCCCCCCCCCCCCCCCC(=O)*; γGlu = O=C(O)[C@H](CCC(=O)[*:2])N[*:1]; NMeI = CC[C@H](C)[C@H](NC)C(=O)O; Sar = CNCC(=O)O

Series [1] can be described thus: Assessment of physical stability: fibril formation detected with Thioflavin T (ThT), lag-time. It is filed as physicochemical. The settings on record: 1 mg/ml peptide, 40 µM ThT, FND = Fibrillation not detected. In short, it runs like this: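 Test peptide at 1 mg/ml with 40 µM ThT in 50 mM phosphate (pH 7.0), 50 mM histidine (pH 7.0) or 50 mM acetate (pH 4.0), in triplicate, 40° C. for 96 h. Fluorescence read every 10 min after 300 s agitation. Lag-time (h) taken as intersection of linear fits to initial stable and growth phases.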

Series [2] can be described thus: Solubility assessment (turbidity absorbance at 325 nm). It is filed as physicochemical. The conditions noted are these: stock 2 mg/ml diluted 1:1, ambient temperature (typically 25°C), n=1. An outline of the steps:
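Peptide stock (2 mg/ml) in water acidified to pH 2.5 with HCl was diluted 1:1 into 100 mM acetate (pH 4.0, 5.0), histidine (pH 6.0, 7.0) or phosphate (pH 6.0, 7.0, 7.5) buffer. A280 and A325 were read at about 25°C, n=1. A325 ≤ 0.02 meant solubility ≥ 1 mg/ml.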

Series [3] deals with Sprague Dawley (SD) rats. The series is described as follows: Acute food intake and body weight in normal Sprague Dawley rats. In kind it is in vivo. The conditions noted are these: vehicle-corrected, dose 30 nmol/kg sc, once. In short, it runs like this: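 Normal male-unspecified SD rats, n = 8 per group, given a single s.c. peptide dose of 30 nmol/kg just before dark phase, with vehicle and positive control groups. Food intake recorded at 0, 4, 7, 10, 24, 48, 72 and 96 h; body weight daily; means ± SEM.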

Turning to `CC[C@H](C)[C@@H](C(=O)N[C@@H](CC(C)C)C(=O)N[C@@H](CO)C(=O)N[C@@H](CO)C(=O)N[C@H](C(=O)N[C@@H](CC(N)=O)C(=O)N[C@H](C(=O)NCC(=O)N[C@@H](CO)C(=O)N[C@@H](CC(N)=O)C(=O)N[C@H](C(=O)N1CCC[C@H]1C(N)=O)[C@@H](C)O)C(C)C)[C@@H](C)O)N(C)C(=O)[C@H](C)NC(=O)CN(C)C(=O)[C@H](Cc1ccccc1)NC(=O)[C@H](CC(N)=O)NC(=O)[C@H](CC(N)=O)NC(=O)[C@H](CO)NC(=O)[C@H](CO)NC(=O)[C@H](CCCNC(=N)N)NC(=O)[C@H](Cc1c[nH]cn1)NC(=O)[C@H](CC(C)C)NC(=O)[C@H](Cc1ccccc1)NC(=O)[C@H](CCC(=O)O)NC(=O)[C@H](C)NC(=O)[C@H](CC(C)C)NC(=O)[C@H](CCCNC(=N)N)NC(=O)[C@H](CCC(N)=O)NC(=O)[C@@H](NC(=O)[C@H](C)NC(=O)[C@@H]1CSSC[C@H](NC(=O)[C@H](Cc2c[nH]c3ccccc23)NC(=O)[C@H](CCCNC(=N)N)NC(=O)CC[C@H](NC(=O)CCCCCCCCCCCCCCCCCCC(=O)O)C(=O)O)C(=O)N[C@@H](CC(N)=O)C(=O)N[C@@H]([C@@H](C)O)C(=O)N[C@@H](C)C(=O)N[C@@H]([C@@H](C)O)C(=O)N1)[C@@H](C)O` [Compound 174, [19CD]-isoGlu-RWC()NTATC()ATQRLAEFLHRSSNNF-Gly(Me)-A-Ile(Me)-LSSTNVGSNTP-NH2] ({C20 diacid-γGlu}-RWCNTATCATQRLAEFLHRSSNNF[Sar]A[NMeI]LSSTNVGSNTP-NH2; disulfide 3-8), in series [1] (50 mM acetate buffer pH 4.0, 96 hours at 40°C), the “Fibrillation lag time (hours) pH 4.0 (Ac)” value is recorded as “FND”. Besides, in series [1] (50 mM histidine buffer pH 7.0, 96 hours at 40°C), the “Fibrillation lag time (hours) pH 7.0 (His)” value is recorded as “FND”. Further, the “Fibrillation lag time (hours) pH 7.0 (Ph)” value in series [1] (50 mM phosphate buffer pH 7.0, 96 hours at 40°C) was “FND”. Besides, the “Solubility, Acetate buffer pH 4” value in series [2] (100 mM acetate buffer pH 4.0) is on record as “SS (SS indicates solubility ≥ 1mg/ml)”. In addition, in series [2] (100 mM acetate buffer pH 5.0), the “Solubility, Acetate buffer pH 5” value is “SS (SS indicates solubility ≥ 1mg/ml)”. The “Solubility, Histidine buffer pH 6” value in series [2] (100 mM histidine buffer pH 6.0) was “SS (SS indicates solubility ≥ 1mg/ml)”. Moreover, in series [2] (100 mM histidine buffer pH 7.0), the “Solubility, Histidine buffer pH 7” value was “SS (SS indicates solubility ≥ 1mg/ml)”. For the same compound, in series [2] (100 mM phosphate buffer pH 6.0), the “Solubility, Phosphate buffer pH 6” value is “SS (SS indicates solubility ≥ 1mg/ml)”. Further, the “Solubility, Phosphate buffer pH 7” value in series [2] (100 mM phosphate buffer pH 7.0) is listed as “SS (SS indicates solubility ≥ 1mg/ml)”. In series [2] (100 mM phosphate buffer pH7.5), the “Solubility, Phosphate buffer pH 7.5” value is reported as “II (II indicates solubility ≤ 1 mg/ml)”. The “Food intake inhibition (%) after 48 hours” value in series [3] (48 hours) was found to be 99%. Also, the “Body weight loss (%) after 96 hours” value in series [3] (mean ± SEM, 96 hours, n = 8) is 8 ± 1.4%.
